Experimental data taken from patent US20120329872A1, “Ready-To-Eat Feed For Domestic Pets” (Alzchem Trostberg GmbH, priority 2006, published 2012).

Assays:
[1] = Stability in water (pH 7) heated in an autoclave to 160° C. for 30 minutes (model of feed extrusion); format: physicochemical
Description: For this purpose a model system was used for the extrusion of a moist feed paste at 160° C. […] Subsequently the content of creatine and guanidinoacetic acid was determined.

[2] = Storage stability in water at pH 5 over 60 days (comparable to canned feeds); format: physicochemical
[3] = dogs, oral, about 40 mg/kg daily for several weeks; cited from earlier work
[4] = 200 patients, 30 mg GAA/kg daily for one year, in combination with betaine; cited from earlier work
[5] = tested on: Staphylococcus aureus; conditions: bacterial infections (Staphylococcus aureus); cited from earlier work

content remaining, of the original content ([1]; water pH 7, 30 minutes at 160° C., autoclave) | content recovered after storage ([2]; water pH 5, after 60 days) | content remaining, of the original content ([1]; 0.5 h, pH 7) | degradation after storage ([2]; water pH 5, after 60 days) | Structure (SMILES) | body weight change [3] | nitrogen balance [3] | storage stability compared with creatine (FIG. 2) ([2]; water pH 5, over 60 days) | side effects [4] | antibacterial action in animal experiments [5]
less than 20% | 87% | – | – | CN(CC(=O)O)C(=N)N [creatine, reference compound] | considerable increase in weight | positive nitrogen balance | – | – | –
– | – | more than 80% | no degradation | N=C(N)NCC(=O)O [guanidinoacetic acid] | – | – | significantly higher storage stability than creatine | not observed | successfully used against bacterial infections
